Assays:
[1] = Cytotoxicity, MTT assay, C8166 cells; format: cell-based; conditions: human, three days, read-out: CC50 (Mean ± SD)
[2] = Cytotoxicity, MTT assay, MT-4 cells; format: cell-based; conditions: human, three days, read-out: CC50 (Mean ± SD)
[3] = Cytotoxicity, MTT assay, H9/HIV-1IIIB cells; format: cell-based; conditions: human, three days, read-out: CC50 (Mean ± SD)
[4] = Cytotoxicity, MTT assay, PBMCs; format: cell-based; conditions: human, PBMC, seven days, read-out: CC50 (Mean ± SD)
HIV-1IIIB [5] = test: Anti-HIV-1 activity, syncytia (CPE) count in C8166 cells; format: cell-based; conditions: Human immunodeficiency virus 1
HIV-1IIIB [6] = test: Anti-HIV-1 activity, MTT protection of MT-4 cells; format: cell-based; conditions: Human immunodeficiency virus 1, MT4, MT-4, MTT
[7] = tested on: HIV-1IIIB chronically infected H9 cells; test: HIV-1 replication in chronically infected H9/HIV-1IIIB cells, p24; format: cell-based
HIV-1Yu-2(G140S/Q148H) = test: microbe, parasite or virus in culture; format: cell-based; conditions: Human immunodeficiency virus 1, TZM-bl
[8] = tested on: C8166 cells infected with HIV-1IIIB or TZM-bl cells infected with HIV-1YU-2; test: Combination antiviral activity assay (CompuSyn CI and DRI); format: cell-based
[9] = Acute toxicity, single intragastric dose; format: in vivo; conditions: male and female BALB/C mice
CYP3A4M = CYP3A4M (Homo sapiens, UniProt P08684); test: Cytochrome P450 inhibition, human liver microsomes, midazolam
CYP3A4M, sequence (P08684 whole entry): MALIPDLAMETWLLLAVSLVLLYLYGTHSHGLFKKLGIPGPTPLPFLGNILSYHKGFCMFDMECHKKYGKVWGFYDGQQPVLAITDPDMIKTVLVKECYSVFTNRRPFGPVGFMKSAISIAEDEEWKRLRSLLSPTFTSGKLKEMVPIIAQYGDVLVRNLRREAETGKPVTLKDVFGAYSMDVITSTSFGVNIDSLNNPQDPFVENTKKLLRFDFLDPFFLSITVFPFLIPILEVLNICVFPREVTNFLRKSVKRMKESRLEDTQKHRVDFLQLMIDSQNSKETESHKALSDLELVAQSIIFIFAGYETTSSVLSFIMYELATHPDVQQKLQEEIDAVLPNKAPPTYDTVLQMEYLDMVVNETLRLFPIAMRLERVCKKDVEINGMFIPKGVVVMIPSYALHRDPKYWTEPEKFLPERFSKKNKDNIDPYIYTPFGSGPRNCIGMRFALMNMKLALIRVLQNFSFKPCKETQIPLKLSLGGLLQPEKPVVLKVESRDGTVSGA

CYP1A2 = molecular target: T1, CYP1A2 (Homo sapiens, UniProt P05177); test: Cytochrome P450 inhibition, human liver microsomes, phenacetin
T1 sequence (P05177 1-516): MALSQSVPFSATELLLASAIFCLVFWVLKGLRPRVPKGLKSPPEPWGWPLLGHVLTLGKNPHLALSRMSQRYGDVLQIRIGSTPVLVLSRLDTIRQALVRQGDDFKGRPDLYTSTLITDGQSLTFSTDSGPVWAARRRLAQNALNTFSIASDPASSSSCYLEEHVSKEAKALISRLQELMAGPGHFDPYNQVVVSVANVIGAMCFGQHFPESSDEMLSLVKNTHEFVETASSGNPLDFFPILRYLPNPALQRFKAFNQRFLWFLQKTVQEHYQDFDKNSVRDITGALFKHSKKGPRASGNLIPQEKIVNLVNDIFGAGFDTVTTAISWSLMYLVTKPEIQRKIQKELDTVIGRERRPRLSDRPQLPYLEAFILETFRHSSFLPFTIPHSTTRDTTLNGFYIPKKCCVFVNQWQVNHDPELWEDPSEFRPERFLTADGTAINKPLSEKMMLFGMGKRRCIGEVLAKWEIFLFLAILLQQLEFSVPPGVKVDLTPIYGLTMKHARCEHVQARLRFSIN

CYP2C9 = CYP2C9 (Homo sapiens, UniProt P11712); test: Cytochrome P450 inhibition, human liver microsomes, diclofenac
CYP2C9, sequence (P11712 whole entry): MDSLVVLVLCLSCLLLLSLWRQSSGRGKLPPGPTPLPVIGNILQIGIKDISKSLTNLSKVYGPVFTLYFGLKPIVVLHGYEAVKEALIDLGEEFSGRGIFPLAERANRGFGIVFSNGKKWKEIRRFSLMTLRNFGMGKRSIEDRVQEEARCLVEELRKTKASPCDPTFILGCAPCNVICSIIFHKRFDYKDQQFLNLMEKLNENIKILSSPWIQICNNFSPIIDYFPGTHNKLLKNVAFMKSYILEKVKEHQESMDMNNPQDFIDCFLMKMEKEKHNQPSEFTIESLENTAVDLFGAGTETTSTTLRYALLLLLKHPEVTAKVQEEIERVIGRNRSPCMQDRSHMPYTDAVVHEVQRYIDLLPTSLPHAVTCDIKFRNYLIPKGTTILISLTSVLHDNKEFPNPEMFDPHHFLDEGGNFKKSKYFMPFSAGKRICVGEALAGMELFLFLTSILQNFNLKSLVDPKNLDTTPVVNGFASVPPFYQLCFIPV

HIV-1IIIB [10] = test: Anti-HIV-1 activity in the presence of human serum, p24 in C8166; conditions: Human immunodeficiency virus 1, C8166, HIV-1IIIB
CYP2C19 = CYP2C19 (Homo sapiens, UniProt P33261); test: Cytochrome P450 inhibition, human liver microsomes, S-mephenytoin
CYP2C19, sequence (P33261 whole entry): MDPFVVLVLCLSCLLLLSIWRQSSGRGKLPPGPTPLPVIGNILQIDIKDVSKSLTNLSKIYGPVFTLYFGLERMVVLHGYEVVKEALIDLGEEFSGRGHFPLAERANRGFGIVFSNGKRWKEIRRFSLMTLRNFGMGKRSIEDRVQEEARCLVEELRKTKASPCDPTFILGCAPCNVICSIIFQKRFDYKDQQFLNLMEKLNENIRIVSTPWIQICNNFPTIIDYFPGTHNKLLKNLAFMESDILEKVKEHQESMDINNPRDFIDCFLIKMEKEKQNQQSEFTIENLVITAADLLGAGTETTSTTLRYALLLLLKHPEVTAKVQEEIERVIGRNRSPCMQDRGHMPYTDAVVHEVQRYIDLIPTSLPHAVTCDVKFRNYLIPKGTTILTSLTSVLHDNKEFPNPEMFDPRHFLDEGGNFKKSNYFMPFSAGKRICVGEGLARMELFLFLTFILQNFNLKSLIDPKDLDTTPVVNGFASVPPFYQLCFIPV

CYP2D6 = CYP2D6 (Homo sapiens, UniProt P10635); test: Cytochrome P450 inhibition, human liver microsomes, dextromethorphan
CYP2D6, sequence (P10635 whole entry): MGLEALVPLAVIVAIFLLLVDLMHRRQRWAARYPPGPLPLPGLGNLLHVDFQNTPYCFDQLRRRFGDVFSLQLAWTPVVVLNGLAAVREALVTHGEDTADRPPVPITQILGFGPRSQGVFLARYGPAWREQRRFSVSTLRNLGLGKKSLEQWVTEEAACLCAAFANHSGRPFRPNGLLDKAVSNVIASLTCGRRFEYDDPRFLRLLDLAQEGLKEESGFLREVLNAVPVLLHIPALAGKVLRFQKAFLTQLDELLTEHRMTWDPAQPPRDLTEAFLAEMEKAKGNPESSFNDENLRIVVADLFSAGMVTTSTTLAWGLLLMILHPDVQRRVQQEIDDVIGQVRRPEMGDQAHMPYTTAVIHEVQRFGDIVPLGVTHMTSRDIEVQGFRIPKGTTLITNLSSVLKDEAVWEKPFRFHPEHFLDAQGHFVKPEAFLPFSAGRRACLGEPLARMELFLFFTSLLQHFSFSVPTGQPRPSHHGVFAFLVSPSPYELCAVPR

[11] = single drug in combination K-5a2+3TC
[12] = single drug in combination K-5a2+AZT
[13] = single drug in combination K-5a2+DC521022
[14] = single drug in combination K-5a2+DRV
[15] = single drug in combination K-5a2+DTG
[16] = single drug in combination K-5a2+ETR
[17] = single drug in combination K-5a2+FTC
[18] = single drug in combination K-5a2+MVC
[19] = single drug in combination K-5a2+RAL
[20] = single drug in combination K-5a2+T-20
[21] = single drug in combination K-5a2+TDF

Cc1cc(C#N)cc(C)c1Oc1nc(NC2CCN(Cc3ccc(S(N)(=O)=O)cc3)CC2)nc2ccsc12 [K-5a2]
CC50 at 3 days [1]: > 50 µM
CC50 at 3 days [2]: 26.6 ± 2.03 µM
CC50 at 3 days [3]: 28.1 ± 5.03 µM
CC50 at 7 days [4]: 39.7 ± 6.29 µM
EC50 (HIV-1IIIB [5]): 0.00188 ± 0.00087 µM
EC50 (HIV-1IIIB [6]): 0.00174 ± 0.00011 µM
EC50 ([7]; Human immunodeficiency virus 1, HIV-1IIIB, H9/HIV-1IIIB chronically infected, p24): > 50 µM
Inhibition of HIV-1 replication in HIV-1IIIB chronically infected H9 cells ([7]; at a concentration of 50.00 µM): could not inhibit the replication
EC50 (HIV-1Yu-2(G140S/Q148H)): 0.00026 ± 0.00028 µM
DRI Value ED75 [8, 11]: 2.79 ± 0.14
DRI Value ED90 [8, 11]: 2.81 ± 0.58
DRI Value ED95 [8, 11]: 2.85 ± 0.93
DRI Value ED75 [8, 12]: 13.26 ± 9.86
DRI Value ED90 [8, 12]: 7.60 ± 3.58
DRI Value ED95 [8, 12]: 5.48 ± 2.08
DRI Value ED75 [8, 13]: 1.61 ± 0.50
DRI Value ED90 [8, 13]: 1.71 ± 0.48
DRI Value ED95 [8, 13]: 1.78 ± 0.47
DRI Value ED75 [8, 14]: 2.26 ± 0.28
DRI Value ED90 [8, 14]: 2.57 ± 0.19
DRI Value ED95 [8, 14]: 2.85 ± 0.57
DRI Value ED75 [8, 15]: 1.69 ± 0.37
DRI Value ED90 [8, 15]: 1.94 ± 0.10
DRI Value ED95 [8, 15]: 2.19 ± 0.50
DRI Value ED75 [8, 16]: 1.47 ± 0.24
DRI Value ED90 [8, 16]: 1.40 ± 0.12
DRI Value ED95 [8, 16]: 1.35 ± 0.07
DRI Value ED75 [8, 17]: 5.00 ± 0.71
DRI Value ED90 [8, 17]: 3.58 ± 0.51
DRI Value ED95 [8, 17]: 2.85 ± 0.41
DRI Value ED75 [8, 18]: 1.30 ± 0.17
DRI Value ED90 [8, 18]: 1.28 ± 0.15
DRI Value ED95 [8, 18]: 1.27 ± 0.15
DRI Value ED75 [8, 19]: 2.45 ± 0.95
DRI Value ED90 [8, 19]: 2.47 ± 0.85
DRI Value ED95 [8, 19]: 2.49 ± 0.79
DRI Value ED75 [8, 20]: 5.13 ± 0.38
DRI Value ED90 [8, 20]: 4.68 ± 0.43
DRI Value ED95 [8, 20]: 4.43 ± 0.75
DRI Value ED75 [8, 21]: 2.30 ± 0.73
DRI Value ED90 [8, 21]: 2.15 ± 0.47
DRI Value ED95 [8, 21]: 2.06 ± 0.33
MTD ([9]; both, mouse, in vivo, po, 5000 mg/kg, single gavage dose, read-out: Maximum tolerated dose): > 5000 mg/kg
Clinical symptoms and body weight ([9]; single gavage dose of 5000 mg/kg): no obvious clinical symptoms and no obvious abnormalities in body weight
IC50 (CYP3A4M): 18.9 µM
IC50 (CYP1A2): > 50 µM
IC50 (CYP2C9): > 50 µM
EC50 (HIV-1IIIB [10]; C8166, p24, 20% human serum): 0.00783 ± 0.00173 µM
EC50 (HIV-1IIIB [10]; C8166, p24, 40% human serum): 0.00787 ± 0.00601 µM
IC50 (CYP2C19): > 50 µM
IC50 (CYP2D6): > 50 µM

Source: PMC9699427 (Viruses, 2022)
